Measured values from patent publication US6171786A, “Methods for preventing multidrug resistance in cancer cells” (priority 1996, dated 2001).
Entries after “also recorded” stand apart in the source; their conditions may differ.

Assays:
MDR1 expression [1] = experiment: Induction of MDR1 expression by agents that increase intracellular Ca2+; assay type: cell-based, human; settings: H9 cells, 10 hrs
Experimental: H9 cells were seeded into each well of 6-well plates (10^5 cells/well in 3 mL of RPMI-1640 medium/10% fetal bovine serum/2 mM L-glutamine/100 U/mL penicillin and 100 μg/mL streptomycin). Experimental cultures were treated with either the calcium-specific ionophore A23187 or an inhibitor of Ca^2+ -dependent ATPase, thapsigargin. Cells were incubated with 10 μM A23187 or 10 μg/mL thapsigargin for 10 hrs at 37° C., 5% CO2 in a humidified atmosphere. Negative control cultures were incubated as above without the addition of either A23187 or thapsigargin.
After each incubation was complete, steady-state levels of MDR1- and β2 -microglobulin mRNA (internal standard) were determined by RT-PCR as described above in Example 4. PCR products were then analyzed in 7.5% polyacrylamide gel electrophoresis and autoradiographed. […] The absence of the MDR1-specific band and presence of the β2 -microglobulin specific band was consistent with the results on uninduced H9 cells shown above in Examples 4 and 5 and FIGS. 7A through 7F.

[2] = test system: MDR1 expression (P-glycoprotein); experiment: Induction of MDR1 expression by cytotoxic drugs (dye efflux, UIC2, cDNA-PCR); assay type: cell-based, human; settings: for maintenance of MDR1 expression after removal of drug: K562 subpopulation
Experimental: (Commercially-available kits (for example, from GIBCO/BRL, Gaithersburg, Md.) can be advantageously modified for making cDNA using random hexamers.) PCR is then performed using the following primers: […]
(where β2 M represents β2 microglobulin). PCR was performed for β2 M experiments under a regime consisting of 1 cycle comprising denaturation at 94° C. for 3 minutes, primer annealing at 60° C. for 30 seconds, and primer extension at 72° C. for 1 minute, followed by 19 cycles comprising denaturation at 94° C. for 30 seconds, primer annealing at 60° C. for 30 seconds, and primer extension at 72° C. for 1 minute, followed by a final cycle comprising denaturation at 94° C. for 30 seconds, primer annealing at 60° C. for 30 seconds, and primer extension at 72° C. for 5 minutes. MDR1 cDNA sequences were amplified using the identical protocol as for β2 M, but extending the amplification from 19 cycles to 25 cycles. In addition, the cDNA-PCR amplification protocol contained the following modifications: (i) Taq DNA polymerase was added to the PCR mixtures after initial heating of the samples to 94° C. (ii) The yield of the β2 -microglobulin-specific band, obtained after 22-28 cycles of PCR, was used as the primary criterion for equalizing the starting amounts of the cDNA templates in different preparations, in order to account for differential RNA degradation in cells subjected to different types of treatment. ^32 P-labeled PCR products were detected by autoradiography.
In particular PKC is activated by treatment with Ara-C. Therefore, experiments were performed to test whether Ara-C, which is not transported by P-glycoprotein, would have any effect on P-glycoprotein function in K562 leukemia cells.
Also assayed was whether drug-induced MDR1 expression was maintained after cytotoxic drug treatment. […] At different times, MDR1 expression in the surviving cells was analyzed by dye efflux and immunofluorescence labeling with UIC2 (FIG. 3C) or by cDNA-PCR (FIG. 4E).

MRP expression = experiment: Inhibition of MRP mRNA expression in H-9 cells (cDNA-PCR); assay type: cell-based, human; set-up: Inhibition of MRP expression: key to the marks not given beside the values
Experimental: Cells were plated in 6-well Falcon tissue culture plates at 3,300 cells per well, and incubated in the appropriate concentrations of drugs. Each of the protein kinase inhibitors to be tested were added at their appropriate final concentrations, and the cells then incubated for 10 hours at 37° C. under an atmosphere of 5% CO2.
PCR was performed using the following primers: […]
(where β2 M represents β2 microglobulin). PCR was performed for β2 M experiments under a regime consisting of 1 cycle comprising denaturation at 94° C. for 3 minutes, primer annealing at 60° C. for 30 seconds, and primer extension at 72° C. for 1 minute, followed by 19 cycles comprising denaturation at 94° C. for 30 seconds, primer annealing at 60° C. for 30 seconds, and primer extension at 72° C. for 1 minute, followed by a final cycle comprising denaturation at 94° C. for 30 seconds, primer annealing at 60° C. for 30 seconds, and primer extension at 72° C. for 5 minutes.
H-9 cells were used to analyze the effect of various protein kinase inhibitors on the expression of the multidrug resistance associated protein MRP (Grant et al., ibid.).

MDR1 expression [3] = experiment: Inhibition of cytotoxic drug-induced MDR1 expression by inhibitors of NF-κB activation; assay type: cell-based, human; settings: H9
MDR1 expression [4] = experiment: Inhibition of AraC-induced MDR1 expression by phospholipase C inhibitors (RT-PCR); assay type: cell-based, human; settings: U73122 1 and 10 μM; H9, 25 μM AraC
Experimental: The inhibitor was added 45 min. prior to the addition of Ara C. Negative control cultures were incubated as above without the addition of either AraC or U73122.
The specificity of phospholipase C-targeted inhibition of MDR1 induction by cytotoxic drugs was determined in a comparative experiment using a known inhibitor of […] phospholipase C (PC-PLC).

MDR1 expression [5] = experiment: Inhibition of cytotoxic drug-induced MDR1 expression by protein kinase inhibitors (cDNA-PCR)
Experimental: (§1) Cells were plated in 6-well Falcon tissue culture plates at 3,300 cells per well, and incubated in the appropriate concentrations of drugs. Each of the protein kinase inhibitors to be tested were added at the appropriate final concentration 45 minutes prior to MDR1 induction by the addition of Ara-C or TPA, with the exception of herbimycin A, which was added 12 hours prior to Ara-C or TPA, and tyrphostins A25 and B46, which were each added 16 hours prior to MDR1 induction by the addition of Ara-C or TPA. Cells were incubated overnight (TPA) or for 10 hours (Ara-C) at 37° C./ 5% CO2 after the addition of the MDR1 inducing agents before harvesting for cDNA-PCR analysis.
In addition, the analysis of certain drugs imposed added requirements. For experiments using calphostin C, cells were incubated under direct white light illumination. For experiments using D,L-threo-sphingosine, the cell culture medium was pre-treated with the appropriate concentration of the drug for one hour at 37° C. with continuous gentle mixing. After this pretreatment, cells were resuspended in media supplemented with drug and incubated for 45 minutes as described above.
To further evaluate the capacity of protein kinase inhibitors to suppress MDR1 induction by cytotoxic drugs and PKC agonists, H-9 human T-cell leukemia cells were used in cDNA-PCR assays to examine induced MDR1 mRNA expression levels in the presence of protein kinase inhibitors.

MDR1 expression [6] = experiment: Inhibition of TPA- or DOG-induced MDR1 expression; assay type: cell-based, human; settings: H-9 cells; 32 μM erbstatin analog
Experimental: PBL were treated with 1 ng/mL TPA; H9 and K562 cells with 10 ng/mL TPA; KG1a and KG1 cells with 100 ng/mL TPA and the other cell lines with 10 ng/mL TPA.
as §1

## CNc1ccc2oc(C[C@H]3O[C@@]4(CC[C@H]3C)O[C@H]([C@H](C)C(=O)c3ccc[nH]3)[C@H](C)C[C@H]4C)nc2c1C(=O)O [A23187]
MDR1 expression [1]; 10 μM
  MDR1 expression (RT-PCR): capable of inducing MDR1 gene expression; also recorded: a clear MDR1-specific band was detected

## Nc1ccn([C@@H]2O[C@H](CO)[C@@H](O)[C@@H]2O)c(=O)n1 [Ara-C, 1-β-D-arabinofuranosylcytosine]
[2]; EJ bladder carcinoma, 10 μM Ara-C
  MDR1 mRNA expression: activated MDR1 mRNA expression
[2]; H9 T-cell leukemia
  MDR1 mRNA expression: a clear MDR1-specific band was detected
[2]; K562, Ara-C 12-72 hours
  subpopulation of cells that effluxed Rh123: 3-17%
[2]; K562, cDNA-PCR
  MDR1 mRNA expression: dose-dependent increase in MDR1 mRNA expression
[2]; drug-free medium
  maintenance of MDR1 expression after removal of drug: up to 11 weeks
[2]; treated 3-5 days then drug-free
  maintenance of MDR1 expression after removal of drug: maintained for a least several weeks
[2]; KB-3-1 epidermoid carcinoma
  MDR1 mRNA expression: activated MDR1 mRNA expression
[2]; KG1 leukemia cells, 10 μM Ara-C
  P-glycoprotein expression: increased P-glycoprotein expression
[2]; human leukemia and solid-tumor derived cell lines, short-term exposure
  MDR1 induction: MDR1 induction, both at the mRNA and at the protein levels, was observed
MRP expression; 25 μM Ara-C, data not shown
  MRP expression: slight decrease in MRP expression

## Cc1ccc(S(=O)(=O)N[C@@H](Cc2ccccc2)C(=O)CCl)cc1 [N-tosyl-L-phenylalanine chloromethyl ketone]
MDR1 expression [3]; inhibitor 25 μM
  inhibition of MDR1 induction by Adriamycin (2 μM): completely abrogate induction of MDR1 gene expression
  inhibition of MDR1 induction by Ara C (25 μM): completely abrogate induction of MDR1 gene expression; also recorded: complete suppression of AraC-induced MDR1 expression

## COc1ccc2c(c1)CC[C@@H]1[C@@H]2CC[C@]2(C)[C@@H](NCCCCCCN3C(=O)C=CC3=O)CC[C@@H]12 [U73122, 1-(6-((1β-3-methoxyestra-1,3,5(10)-trien-17-yl)amino)hexyl)-1-H-pyrrole-2,5-dione]
MDR1 expression [4]
  inhibition of AraC-induced MDR1 mRNA: inhibited the induction of MDR1 mRNA; also recorded: reduced the steady-state levels of MDR1 mRNA

## CC(=O)Oc1ccccc1C(=O)O [aspirin, acetylsalicylic acid]
MDR1 expression [3]; inhibitor 10 mM
  inhibition of MDR1 induction by Adriamycin (2 μM): completely abrogate induction of MDR1 gene expression
  inhibition of MDR1 induction by Ara C (25 μM): completely abrogate induction of MDR1 gene expression; also recorded: complete suppression of AraC-induced MDR1 expression

## COc1ccc2c(c[n+](C)c3c4cc5c(cc4ccc23)OCO5)c1OC [chelerythrine]
MDR1 expression [5]
  inhibition of MDR1 induction by cytotoxic drugs: capable of inhibiting MDR1 induction by cytotoxic drugs
MDR1 expression [5]; 5 μM chelerythrine
  prevention of MDR1 induction by chemotherapeutic drugs: prevent MDR1 induction by chemotherapeutic drugs
MDR1 expression [5]; chelerythrine 1 μM and 5 μM, H-9
  inhibition of Ara-C induced MDR1 expression: Progressive dose-dependent inhibition
MRP expression; 1-5 μM
  MRP expression: capable of inhibiting MRP expression; also recorded: strongly inhibited

## COC(=O)C=Cc1cc(O)ccc1O [methyl-2,5-dihydroxycinnamate]
MDR1 expression [6]
  inhibition of TPA-induced MDR1 expression: completely inhibited TPA-induced MDR1 expression; also recorded: inhibit MDR1 expression induced by treatment of sensitive cells with TPA
MDR1 expression [5]; 32 μM erbstatin analog, H-9 cells
  inhibition of Ara-C induced MDR1 expression: completely inhibit Ara-C induced MDR1 expression
MRP expression; 32 μM
  MRP expression: capable of inhibiting MRP expression; also recorded: strongly inhibited

## S=C(S)N1CCCC1 [pyrrolidone dithiocarbamate]
MDR1 expression [3]; inhibitor 20 μM
  inhibition of MDR1 induction by Ara C (25 μM): complete suppression of AraC-induced MDR1 expression
MDR1 expression [3]; inhibitor 100 μM
  inhibition of MDR1 induction by Adriamycin (2 μM): completely abrogate induction of MDR1 gene expression
  inhibition of MDR1 induction by Ara C (25 μM): completely abrogate induction of MDR1 gene expression

## O=C([O-])c1ccccc1O.[Na+] [sodium salicylate]
MDR1 expression [3]; inhibitor 20 mM
  inhibition of MDR1 induction by Adriamycin (2 μM): completely abrogate induction of MDR1 gene expression
  inhibition of MDR1 induction by Ara C (25 μM): completely abrogate induction of MDR1 gene expression; also recorded: complete suppression of AraC-induced MDR1 expression

## C/C=C(/C)C(=O)O[C@H]1C(C)=C2[C@H]([C@@H]1OC(=O)CCCCCCC)[C@@](C)(OC(C)=O)C[C@H](OC(=O)CCC)[C@@]1(O)[C@H]2OC(=O)[C@@]1(C)O [thapsigargin]
MDR1 expression [1]; 10 μg/mL
  MDR1 expression (RT-PCR): capable of inducing MDR1 gene expression; also recorded: a clear MDR1-specific band was detected

## neomycin sulfate
MDR1 expression [5]; 10 mM neomycin sulfate
  inhibition of Ara-C induced MDR1 expression: inhibit Ara-C induced MDR1 expression; also recorded: completely prevent cytotoxic drug and PKC agonist induction of MDR1 expression
MRP expression; 10 mM
  MRP expression: capable of inhibiting MRP expression; also recorded: strongly inhibited
MRP expression; 10 mM, 10 h
  Inhibition of MRP expression: ++++
